This is an account of results in article PMC10590383, “Repurposing conformational changes in ANL superfamily enzymes to rapidly generate biosensors for organic and amino acids” (Nature Communications, 2023).

Series [1] can be described thus: Fluorescence spectra / excitation wavelength scan of […]s. Type of series: physicochemical. To be noted: Wavelength 300 nm. How it is done:
Fig. 3 Dose–response curves and fluorescence spectrums of […]s. a, c, e, g, i, k Dose–response curve of purified […]s with increasing concentrations of ligand in 100 mM Tris-HCl buffer (pH=7.5). […] All data shown are mean ± S.D. (n = 3 biologically independent samples). Source data are provided as a Source data file.
The study conducted dose–response curve, substrate specificity, and fluorescent spectrum analyses in 100-mM Tris buffer (pH = 7.5), while pH stability experiments were performed in 100-mM Tris buffer at three different pH values (6.5, 7.5, and 8.5) at room temperature. […] protein at a concentration of 0.75 μM, various small molecule concentrations, 1 mM ATP, and 2.5 mM MgCl2 were used in the experiments. Fluorescent signals were detected using a Microplate Reader (Synergy H4, Bio Tek) at an excitation/emission wavelength of 460 nm/510 nm or 480 nm/510 nm. The dose-response curve was determined immediately after the addition of the analyte. The total duration of the measurement was 15 min, with readings taken at one-minute intervals. The dose-response curve was plotted using the fluorescence values obtained after achieving stability in the fluorescence signal. The dose-response curves were fitted using the logistic model LOGISTIC5 available in Origin 2021, which could provide a more adequate fit to asymmetric dose-response data[62],[63]. Excitation spectra were scanned from 300 to 540 nm with a step size of 5 nm, and the emission wavelength was set to 560 nm. Emission spectra were scanned from 470 to 700 nm with a step size of 5 nm, and the excitation wavelength was set to 450 nm. The thermal stability of […] was analyzed using the UNcle multifunctional protein stability analysis system. Measurements were performed in 20 mM MOPS buffer with 2 mM DTT at a sample concentration of 1 mg/mL. Absolute fluorescence quantum yields were measured using an absolute photoluminescence quantum yield spectrometer (FS5, Edinburgh).

A short description of series [2]: Substrate (ligand) specificity of […]s. Type of series: biochemical. As to conditions: for fluorescence response of GECFINDER to each substrate, AVE of 3 repeats: Supplementary Fig. 3 c, substrate specificity. The method, boiled down:
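Purified biosensor protein (0.75 μM) with ligand, 1 mM ATP and 2.5 mM MgCl2 in 100 mM Tris-HCl, pH 7.5, at room temperature. Fluorescence (Ex 460 or 480/Em 510 nm) read each minute for 15 min. Dose-response fitted by 5-parameter logistic; specificity tested with 20 amino acids at 100 μM as normalized ΔF/F0.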

As for `N[C@@H](Cc1cnc[nH]1)C(=O)O` [His], the “Wavelength scan, AVE of Repeat 1-3 (Fig. 3 l)” value in series [1] (0.005 μM His) was 201.667; in series [1] (10 μM His) it was 165.667; in series [1] (1000 μM His), 210. The “fluorescence response of GECFINDER to each substrate, AVE of 3 repeats” value (from here on “fluorescence response of GECFINDER”) in series [2] amounted to 0.0452.
As to `CC[C@H](C)[C@H](N)C(=O)O` [Ile], the figures for the “Wavelength scan, AVE of Repeat 1-3 (Fig. 3 j)” value in series [1] (0.05 μM Ile), in series [1] (100 μM Ile) and in series [1] (10000 μM Ile) were 3399.67, 3371.67 and 3289.33, respectively. Also, in series [2], the “fluorescence response of GECFINDER” value came to 0.009799.
With `N[C@@H](Cc1ccccc1)C(=O)O` [Phe], the “Wavelength scan, AVE of Repeat 1-3 (Fig. 3 d)” value came to 174.667 in series [1] (0.001 μM Phe) and 212 in series [1] (1 μM Phe). The “AVE of Repeat 1-3, sensor signal with ligand (Supplementary Fig. 7 c)” value in series [2] (0.5 mM ligand, Control AVE 12117.3) was 23386.3. In addition, the “fluorescence response of GECFINDER” value in series [2] came out at 0.3443.
